This is an account of results in PMC8845285, “Serotoninergic receptor ligands improve Tamoxifen effectiveness on breast cancer cells” (BMC Cancer, 2022).

One may read the IC50 as the concentration at which inhibition is half-maximal. In general, Ki refers to the dissociation constant of the complex between target and ligand, obtained from inhibition or displacement.

One assay concerns MDA-MB231 cells. In words: MDA-MB231 cell viability, sulforhodamine B assay. Format: cell-based, human. Conditions: for IC50: Homo sapiens, MDA-MB-231, 72 h treatment. The method, then: (§1) MCF7 (ER^+, PR^+, HER2^−), SKBR3 (ER^−, PR^+, HER2^+) and MDA-MB231 (ER^−, PR^−, HER2^−) human BC cells and MCF10A non-cancer breast epithelial cells were available in our laboratory. MCF7, SKBR3 and MDA-MB231 cells were cultured in DMEM, supplemented with 10% FBS, 2 mM glutamine, 100 units/ml penicillin and 100 units/ml streptomycin. MCF10A cells were cultured in MEBM, supplemented with 0.4% BPE, 0.1% hEGF, 0.1%, Insulin, 0.1% Hydrocortisone and 0.1% GA-1000. […] Treatment with SER were carried out in culture conditions. Treatment with Tamoxifen and/or SER were carried out upon 48 h estrogen starvation in phenol-red free medium supplemented with 10% Charcoal Stripped (C/S) FBS, 2 mM glutamine, 100 units/ml penicillin and 100 units/ml streptomycin.
(§2) Cells were fixed with 50% trichloroacetic acid for at least 2 h at 4 °C, washed with distilled and de-ionized water, air-dryed and stained 30 min with 0.4% sulforhodamine B in 1% acetic acid. Unbound dye was removed and 10 mM tris-HCl solution (pH 7.5) was added to dissolve the protein-bound dye. Cell survival was assessed by optical density determination at 510 nm using a microplate reader.
Cell viability was assessed, after 72 h, by sulforhodamine B assay (see Methods).
(Sulforhodamine B stains cellular protein and so reports cell mass.)

The target of assay [1] is T1, serotonin 5-HT2A receptor (Rattus norvegicus, UniProt P14842).
T1 construct: serotonin 5-HT2A receptor, [^3H]ketanserin, rat brain cortex; from tissue; host or cells: rat brain cortex
T1 sequence (P14842 whole entry): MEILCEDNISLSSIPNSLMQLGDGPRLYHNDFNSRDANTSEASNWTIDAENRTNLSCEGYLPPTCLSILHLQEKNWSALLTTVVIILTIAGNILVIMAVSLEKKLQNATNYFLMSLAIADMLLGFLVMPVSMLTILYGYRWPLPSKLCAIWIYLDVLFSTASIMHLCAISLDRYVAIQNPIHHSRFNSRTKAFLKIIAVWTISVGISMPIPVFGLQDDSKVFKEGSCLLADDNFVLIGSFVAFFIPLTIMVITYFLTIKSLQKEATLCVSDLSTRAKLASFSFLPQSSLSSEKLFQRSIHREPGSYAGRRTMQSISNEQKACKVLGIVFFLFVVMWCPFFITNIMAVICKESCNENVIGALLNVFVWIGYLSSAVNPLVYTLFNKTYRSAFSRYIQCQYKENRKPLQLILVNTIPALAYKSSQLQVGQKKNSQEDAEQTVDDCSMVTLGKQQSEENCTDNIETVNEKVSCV
In words: radioligand binding assay, 5-HT2A, [3H]ketanserin. Conditions: rat brain cortex; read-out: Ki ± SD, 5-HT2A [3H]Ketanserin. The method, then:
(§3) All reactions were monitored by TLC, carried out on Merck 60G F254 plates with fluorescent indicator and the plates were visualized with UV light (254 nm). Each final compound and intermediate was purified by silica gel column chromatography (Macherey-Nagel 60 0,063–0,2 mm/70–230 mesh). […] Unless otherwise stated, all spectra were recorded in CDCl3. Chemical shifts are reported in ppm using Me4Si as internal standard. The following abbreviations are used to describe peak patterns when appropriate: s (singlet), d (doublet), t (triplet), m (multiplet), q (quartet), qt (quintet), dd (double doublet), ddd (double dd), bs (broad singlet). Mass spectra of the final products were performed on LTQ Orbitrap XL™ Fourier transform mass spectrometer (FTMS) equipped with ESI ION MAX™ source (Thermo Fisher, San José, USA). Melting points were determined using a Buchi B-540 hot-stage instrument and are uncorrected. […] All the compounds were dissolved in 5% DMSO. The following specific radioligands and tissue sources were used: (a)serotonin 5-HT1A receptor, [^3H]-8-OH-DPAT, rat brain cortex; (b) serotonin 5-HT2A receptor, [^3H]ketanserin, rat brain cortex; (c)serotonin 5-HT2C receptor, [^3H]mesulergine, rat brain cortex. Non-specific binding was determined as described in the experimental section, and specific binding as the difference between total and non-specific binding. […] The IC50 values obtained were used to calculate apparent inhibition constants (Ki) by the method of Cheng and Prussoff, from the following equation: Ki = IC50/(1 + S/KD) where S represents the concentration of the hot ligand used and KD its receptor dissociation constant (KD values, obtained by Scatchard analysis, were calculated for each labeled ligand). Radioligand binding assays for 5-HT1A were performed following a published procedure. 5-HT2A and 5-HT2C binding assays were performed reported by Herndon et al..

A further assay relates to SKBR3 cells. The experiment in a line: SKBR3 cell viability, sulforhodamine B assay. The assay is classed as cell-based, human. Conditions: for IC50: Homo sapiens, SK-BR-3, 72 h treatment. The method, then:
as §1, §2
Fig. 3 Effect of SER on SKBR3 cell viability. […] Cell viability was assessed, after 72 h, by sulforhodamine B assay (see Methods).

A further assay has as its system MCF7 cells. In words: MCF7 cell viability, sulforhodamine B assay. Format: cell-based, human. The settings on record: for IC50: Homo sapiens, MCF7. The method, then:
as §1, §2
After 48 and 72 h, cell viability was assessed by sulforhodamine B assay (see Methods).

In assay [2] the target is T2, serotonin 5-HT2C receptor (Rattus norvegicus, UniProt P08909).
T2 construct: serotonin 5-HT2C receptor, [^3H]mesulergine, rat brain cortex; from tissue; host or cells: rat brain cortex
T2 sequence (P08909 33-460): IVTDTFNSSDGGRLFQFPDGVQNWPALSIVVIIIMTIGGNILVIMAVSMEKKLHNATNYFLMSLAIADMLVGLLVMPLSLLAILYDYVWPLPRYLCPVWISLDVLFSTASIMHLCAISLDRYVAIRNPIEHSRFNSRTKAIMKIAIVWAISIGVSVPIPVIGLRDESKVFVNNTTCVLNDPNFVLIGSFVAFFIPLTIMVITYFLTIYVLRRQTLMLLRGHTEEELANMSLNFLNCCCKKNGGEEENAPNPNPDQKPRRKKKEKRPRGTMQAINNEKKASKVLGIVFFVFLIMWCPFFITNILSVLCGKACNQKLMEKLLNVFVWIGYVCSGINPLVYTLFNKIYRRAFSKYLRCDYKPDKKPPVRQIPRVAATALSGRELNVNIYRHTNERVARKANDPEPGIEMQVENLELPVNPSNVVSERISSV
In words: radioligand binding assay, 5-HT2C, [3H]mesulergine. Conditions: read-out: Ki ± SD, 5-HT2C [3H]Mesulergine. The method, then:
as §3

Assay [3] has as its target T3, serotonin 5-HT1A receptor (Rattus norvegicus, UniProt P19327).
T3 construct: serotonin 5-HT1A receptor, [^3H]-8-OH-DPAT, rat brain cortex; from tissue; host or cells: rat brain cortex
T3 sequence (P19327 1-422): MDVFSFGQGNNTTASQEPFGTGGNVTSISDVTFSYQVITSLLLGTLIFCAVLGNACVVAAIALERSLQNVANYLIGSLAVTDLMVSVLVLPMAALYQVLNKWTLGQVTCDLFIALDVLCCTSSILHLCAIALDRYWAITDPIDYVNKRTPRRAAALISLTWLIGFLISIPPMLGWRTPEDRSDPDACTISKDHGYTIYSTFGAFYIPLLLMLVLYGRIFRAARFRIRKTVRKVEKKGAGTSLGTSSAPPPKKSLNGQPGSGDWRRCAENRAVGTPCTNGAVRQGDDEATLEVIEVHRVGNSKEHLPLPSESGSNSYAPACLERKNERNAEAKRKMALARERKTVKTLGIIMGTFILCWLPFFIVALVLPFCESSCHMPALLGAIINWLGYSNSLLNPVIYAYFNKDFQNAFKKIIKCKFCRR
The experiment in a line: radioligand binding assay, 5-HT1A, [3H]-8-OH-DPAT. The settings on record: rat brain cortex; read-out: Ki ± SD, 5-HT1A [3H]8OH-DPAT. The method, then:
as §3

Where [4] appears, read: 48 h treatment, read-out: IC50 MCF7 48h.
[5] abbreviates: 72 h treatment, read-out: IC50 MCF7.

Like-named read-outs stand apart in the source and are kept apart here. A value given as a limit tells only on which side of the number the result lay.

Turning to `O=C(NCCCN1CCN(Cc2ccc3c(c2)OCO3)CC1)c1ccccn1` [SER195], the 50% inhibitory concentration (IC50) with MDA-MB231 cells was found to be 322 ± 118 µM; in the assay with SKBR3 cells, 150 ± 26 µM; in the assay on MCF7 cells (setting [4]), 156 ± 36.1 µM; in the assay with MCF7 cells (setting [5]) it was 53.3 ± 8.29 µM. Further, the Ki in assay [1] was 0.0453 ± 0.0057 µM.
In the case of `O=C(NCCN1CCN(C(c2ccc(F)cc2)c2ccc(F)cc2)CC1)c1ccccn1` [SER177], the IC50 in the assay on MDA-MB231 cells came to 198 ± 66.7 µM; in the assay with SKBR3 cells it was 43.3 ± 11.1 µM; in the assay on MCF7 cells (setting [4]), 253 ± 65.6 µM; in the assay on MCF7 cells (setting [5]), 66.6 ± 16.2 µM. For the same molecule, the inhibitory constant (Ki) stood at 0.218 ± 0.0093 µM in assay [1] and 0.0008 ± 5e-05 µM in assay [2] (rat brain cortex).
With `O=C(NCCCN1CCN(C(c2ccc(F)cc2)c2ccc(F)cc2)CC1)c1ccccn1` [SER198], the IC50 worked out at 91.3 ± 18.6 µM in the assay with MDA-MB231 cells, 67.7 ± 8.02 µM in the assay on SKBR3 cells, 106 ± 18.4 µM in the assay on MCF7 cells (setting [4]) and 10.2 ± 2.5 µM in the assay with MCF7 cells (setting [5]). The Ki in assay [1] stood at 0.0778 ± 0.0021 µM; in assay [2], 0.117 ± 0.0061 µM; in assay [3], 0.0527 ± 0.0027 µM. In addition, in the assay with SKBR3 cells (50 μM, 72 h), the “reduction of SKBR3 cell viability” value was “≈ 50%”. Besides, the “reduction of MCF7 cell viability” value with MCF7 cells (50 μM, 72 h) is reported as “≈ 70%”.
For the molecule `O=C(NCCN1CCN(c2cccc(C(F)(F)F)c2)CC1)c1ccccn1` [SER167], the IC50 worked out at 223 ± 154 µM in the assay with MDA-MB231 cells, 152 ± 21.6 µM with SKBR3 cells, 151 ± 41.6 µM with MCF7 cells (setting [4]) and 54.2 ± 10 µM in the assay on MCF7 cells (setting [5]). The Ki in assay [1] was 0.0485 ± 0.0027 µM; in assay [2], 0.14 ± 0.0025 µM; in assay [3], 1.32 ± 0.012 µM.
Consider `O=C(c1ccco1)N1CCN(CC(O)CON2C(=O)C3C4C=CC(C4)C3C2=O)CC1` (stereo not shown) [SER31, 4-[3-[4-(2-furoyl)piperazin-1-yl]propoxy-2-ol]-4-aza-tricyclo [5.2.1.02,6]dec-8-ene-3,5-dione], for which, in the assay on MDA-MB231 cells (100 μM, 72 h), the “inhibition of MDA-MB231 cell growth” value is “able to inhibit”. In addition, the IC50 in the assay with MDA-MB231 cells is 136 ± 38.6 µM; with SKBR3 cells, 100 ± 30.8 µM; in the assay with MCF7 cells (setting [4]) it was 336 ± 153 µM; in the assay with MCF7 cells (setting [5]) it was 99.2 ± 33 µM. The values for the inhibitory constant (Ki) in assay [1], in assay [2] (rat brain cortex) and in assay [3] were above 10 µM, 0.00504 ± 0.000227 µM and 1.05 ± 0.000231 µM, respectively.
With `O=C(NCCCN1CCN(C(=O)c2ccco2)CC1)c1ccccn1` [SER196], the IC50 with MDA-MB231 cells was 306 ± 65.8 µM; in the assay with SKBR3 cells, 202 ± 31.2 µM; in the assay on MCF7 cells (setting [4]) it was 206 ± 50.7 µM; in the assay with MCF7 cells (setting [5]) it was 124 ± 31 µM. Also, in assay [1], the Ki worked out at 0.00168 ± 0.0004 µM.
